Laboratory results: article PMC7508583, “Discovery and Preclinical Development of Antigiardiasis Fumagillol Derivatives” (Antimicrobial Agents and Chemotherapy, 2020)
Converted amounts (≈) assume the structure as drawn. Read-outs that look alike come from different tables or passages of the source.

How the values were obtained:
[1] = system: metronidazole-resistant G. lamblia 1279-M1; assay: Trophozoite viability MLC determination; format: cell-based, Giardia lamblia; conditions: metronidazole-resistant strain; 3 days treatment, 3 days proliferation
Experimental: (§1) The inhibition of metabolism enables the organism to resume proliferation once treatment is completed. To discriminate between the lethality of the promising compounds and the induction of metabolic inactivity by the promising compounds, the minimum lethal concentration (MLC) values were determined by treating the trophozoites with the test compounds for 3 days and transferring the resulting cultures to medium lacking the compounds for 3 days of proliferation. This assay was described previously for G. lamblia ([18]) and was adapted to E. histolytica in the current study.
(§2) Trophozoites of G. lamblia isolates WB and GS were grown anaerobically in borosilicate glass screw-cap culture tubes (Fisher Scientific) at pH 7.0 in Keister’s modified TYI-S-33 medium (ATCC). The medium was supplemented with 10% heat-inactivated bovine serum (Sigma-Aldrich) and 0.05% bovine bile (Sigma-Aldrich). To attain low-oxygen-tension conditions, the tubes were filled to 85% to 90% of their total volume capacity and incubated without shaking at 37°C. Subcultures (2 × 10^5 trophozoites per tube) were made three times a week. Detachment of trophozoites for inoculation was achieved by chilling the cultures on ice for 20 min. Culturing and detachment of metronidazole-resistant G. lamblia assemblage A 713M3 and assemblage B 1279-M1 trophozoites followed the same protocol, except that the growth medium was supplemented with metronidazole, with the concentration gradually being increased to 10 μM.
(§3) Compounds were prepared by 2-fold serial dilutions in growth medium containing 0.5% DMSO (diluted from a starting concentration of 1 μM to 12 concentrations for all compounds except metronidazole, fumagillol, and TNP-470, which were diluted from 100 μM), and 100 μl/well was transferred in duplicate to the 96-well culture plate. Ten microliters of G. lamblia trophozoites was plated at a density of 10,000 cells/well. The plates were incubated under anaerobic condition in a BD GasPak EZ container system (BD Diagnostics) at 37°C for 72 h and surveyed visually under a microscope to check trophozoite survival, mobility, and attachment. […] The tubes were incubated under anaerobic condition for 3 days at 37°C and checked under a microscope. The MLC value was the concentration in the tube with the lowest compound concentration without any live organism.

[2] = system: G. lamblia WB trophozoites; assay: Trophozoite viability MLC determination; format: cell-based, Giardia lamblia; conditions: 3 days treatment, 3 days proliferation without drug
Experimental: as §1, §2, §3

[3] = system: metronidazole-resistant G. lamblia 713M3; assay: Trophozoite viability MLC determination; format: cell-based, Giardia lamblia; conditions: metronidazole-resistant strain; 3 days treatment, 3 days proliferation
Experimental: as §1, §2, §3

CHO-K1 (CHO) cells = assay: CHO cell cytotoxicity, ATP content assay; format: cell-based; conditions: for IC50: Cricetulus griseus, CHO, 48 h, read-out: IC50 CHO
Experimental: Cytotoxicity in CHO-K1 (CHO) cells was also determined using the homogeneous ATP content assay with an ATPlite kit, to enable comparison with the IC50 values in the G. lamblia and E. histolytica trophozoites and provide an initial estimate of toxicity risk. Fumagillin served as a comparative control, untreated cells (including 0.5% DMSO) served as a negative control, and puromycin served as a positive control.
CHO cells (180 μl) were seeded at a density of 5,000 cells/well and incubated for 24 h at 37°C in a 5% CO2 incubator in a 96-well plate. The cells were treated with 20 μl fumagillin or fumagillol derivative solutions diluted to obtain final concentrations of 100, 30, 10, 3, 1, and 0.3 μM. Puromycin was diluted from 10 through 0.03 μM. The plates were incubated for 48 h at 37°C in a 5% CO2 incubator. One hundred microliters per well of ATPlite luminescence reagent was added to the plates, the plates were incubated at room temperature for 30 min, and the luminescence signal was measured. The assay was performed in duplicate.

pH 3 degradation test = format: physicochemical
Experimental: The dramatic improvement in stability is not surprising, because the ester group of fumagillin is susceptible to hydrolysis at low pH. […] This should enable the administration of lower doses, reducing toxicity risks.
For accelerated temperature degradation tests at 75% relative humidity and at laboratory uncontrolled relative humidity, fumagillin and compounds 3 and 9 were incubated at 37°C under either controlled or uncontrolled humidity, and the samples were analyzed by HPLC every week for 4 weeks. Measurements were made in duplicate. Area-under-the-curve values were calculated to derive the percentage of compound remaining. For pH degradation, the compounds were dissolved in DMSO and mixed with pH 3.0 buffer. The samples were incubated at 25°C for up to 48 h. Samples were analyzed by HPLC every 2 h for the first 8 h and then after 24 and 48 h.

[4] = system: E. histolytica HM1:IMSS trophozoites; assay: Trophozoite viability MLC determination (ameba assay); format: cell-based, Entamoeba histolytica; conditions: 3 days treatment, 3 days proliferation without drug
Experimental: The inhibition of metabolism enables the organism to resume proliferation once treatment is completed. To discriminate between the lethality of the promising compounds and the induction of metabolic inactivity by the promising compounds, the minimum lethal concentration (MLC) values were determined by treating the trophozoites with the test compounds for 3 days and transferring the resulting cultures to medium lacking the compounds for 3 days of proliferation. This assay was described previously for G. lamblia ([18]) and was adapted to E. histolytica in the current study. In addition to measuring MLC values in the G. lamblia WB and GS strains and in E. histolytica, the MLCs were also measured in metronidazole-resistant G. lamblia strains 713M3 and 1279-M1, to confirm that these compounds were also effective when the metronidazole resistance mechanism evolved. […] Thus, even though fumagillin is a potent anti-G. lamblia drug, it might act in part by metabolic inhibition. Fumagillin’s IC50 and MLC values in E. histolytica were within the same range, supporting the true killing mechanism.
E. histolytica strain HM1:IMSS trophozoites were grown at 37°C in TYI-S-33 medium supplemented with penicillin (100 U/ml) and streptomycin sulfate (100 μg/ml) ([65]). Trophozoites were grown anaerobically in borosilicate tubes or T25 flasks, and subcultures were made 1 to 2 times a week. Trophozoites were detached for inoculation by chilling the cultures on ice for 20 min.
For the MLC assay, compounds were prepared as described above by 2-fold serial dilutions in fresh growth medium, and 50 μl was transferred into the wells of a 96-well plate in duplicate. Confluent E. histolytica trophozoites were diluted in growth medium to a density of 200 cells/μl. Fifty-microliter cultures were distributed in each well to bring the total assay volume to 100 μl. The plates were kept under an anaerobic environment for 72 h at 37°C. Each well was surveyed under a microscope to visualize trophozoite survival, mobility, and attachment. In all cases, duplicate measurements yielded identical growth/death transitions. The plates were chilled on ice for 30 min, and the entire content of each of 4 wells within the growth/death transition of one of the duplicate experiments was transferred for proliferation into 8-ml tubes containing growth medium and no drug. The tubes were incubated under anaerobic condition for 3 days at 37°C and checked under a microscope. The MLC value was the concentration in the tube with the lowest compound concentration without any live organism.

| Structure (SMILES) | MLC G. lamblia 1279-M1 [1] | MLC G. lamblia WB [2] | MLC G. lamblia 713M3 [3] | IC50 (CHO-K1 (CHO) cells; cytotoxicity, ATP content) [µM] | half-life (pH 3 degradation test; buffer, pH 3) [h] | MLC E. histolytica HM:IMSS [4] | selectivity, IC50 for CHO cells/IC50 for amebae (CHO-K1 (CHO) cells; vs E. histolytica) | selectivity, IC50 for CHO cells/IC50 for giardia (CHO-K1 (CHO) cells; vs G. lamblia trophozoites) | IC50 (CHO-K1 (CHO) cells) [µM] | half-life (pH 3 degradation test; pH 3.0 buffer, pH 3, 25°C, read-out: Mean ± SE half-life at pH 3 and 25°C (converted)) [h] |
| --- | --- | --- | --- | --- | --- | --- | --- | --- | --- | --- |
| COC1C(OC(=O)NC(=O)CN2CCOCC2)CCC2(CO2)C1C1(C)OC1CC=C(C)C (stereo not shown) [Compound 3] | 0.98 nM (≈ 0.443 ng/mL) | 0.98 nM (≈ 0.443 ng/mL) | 3.9 nM (≈ 1.76 ng/mL) | > 100 | 17.2 ± 2.26 | 3.9 nM (≈ 1.76 ng/mL) |  |  |  |  |
| Cc1ncc([N+](=O)[O-])n1CCO [Metronidazole, reference compound] | 100,000 nM | 7,700 nM | 100,000 nM |  |  | 1,500 nM | > 10 | < 10 |  |  |
| CCOC(=O)Cc1ccc(NC(=O)OC2CCC3(CO3)C(C3(C)OC3CC=C(C)C)C2OC)cc1 (stereo not shown) [Compound 11] |  | 98 nM (≈ 47.8 ng/mL) |  | > 100 |  | 125 nM (≈ 60.9 ng/mL) |  |  |  |  |
| CO[C@@H]1[C@H](OC(=O)/C=C/C=C/C=C/C=C/C(=O)O)CC[C@]2(CO2)[C@H]1[C@@]1(C)O[C@@H]1CC=C(C)C [Fumagillin, reference compound] | 125 nM (≈ 57.3 ng/mL) | 125 nM (≈ 57.3 ng/mL) | 250 nM (≈ 115 ng/mL) |  |  | 78 nM (≈ 35.8 ng/mL) |  |  | > 100 | 1.42 ± 0.05 |
| COC1C(OC(=O)N2CCC(O)CC2)CCC2(CO2)C1C1(C)OC1CC=C(C)C (stereo not shown) [Compound 16] | 7.8 nM (≈ 3.19 ng/mL) | 1.95 nM (≈ 0.799 ng/mL) | 1.95 nM (≈ 0.799 ng/mL) | > 100 |  | 3.9 nM (≈ 1.6 ng/mL) |  |  |  |  |
| CO[C@@H]1[C@H](OC(=O)Nc2ccc(C(=O)O)cc2)CC[C@]2(CO2)[C@H]1[C@@]1(C)O[C@@H]1CC=C(C)C [Compound 9, 4-(((((3R,4S,5S,6R)-5-methoxy-4-((2R,3R)-2-methyl-3-(3-methylbut-2-en-1-yl)oxiran-2-yl)-1-oxaspiro[2.5]octan-6-yl)oxy)carbonyl)amino)benzoic acid] | 7.8 nM (≈ 3.47 ng/mL) | 3.9 nM (≈ 1.74 ng/mL) | 7.8 nM (≈ 3.47 ng/mL) |  | 43.2 ± 1.45 | 31.3 nM (≈ 13.9 ng/mL) |  |  | > 100 |  |
| COC1C(OC(=O)NC(=O)CN2CCC(O)CC2)CCC2(CO2)C1C1(C)OC1CC=C(C)C (stereo not shown) [Compound 4] | 7.8 nM (≈ 3.64 ng/mL) | 3.9 nM (≈ 1.82 ng/mL) | 3.9 nM (≈ 1.82 ng/mL) | > 100 |  | 7.8 nM (≈ 3.64 ng/mL) |  |  |  |  |
